# In patent publication US7365231B2, “Compound with antitumor activity and preparation method therefor” (National Taiwan University of Science & Technology, priority 2005, dated 2008):
# What was measured:
# Test in all cases: NCI panel growth inhibition, sulforhodamine B
# Type in all cases: cell-based
# [1] = tested on: NCI-H226; conditions: Homo sapiens; NCI-H226, NSCLC; drug for last 48 h of 72 h
# Source text: (§1) Comparison of anticancer activities of the 1,3-substituted adamantane derivatives, 1,3-bis(4-aminophenyl)adamantane (1,3-DPANH2), 1,3-bis(4-(4-aminophenoxy)phenyl)adamantane (1,3-DPAONH2), 1,3-bis(4-(4-amino-3-hydroxy)phenyl)adamantane (1,3-DPA/OH/NH2) and 1,3-bis(4-(4-amino-2-trifluoromethylphenoxy)phenyl)adamantane (1,3-DPA/CF3/NH2) as shown in FIG. 1 were synthesized in the present invention. Those compounds were submitted to the National Cancer Institute for anticancer assay in culture against a standard panel of cell lines. […] To further confirm that the different substituents (CF3 and OH) on the phenyl ring of 1,3-DPAONH2 affect the growth inhibition of cancer cells. […] The transformations of 1,3-DPAONH2 to 1,3-DPA/OH/NH2 led to a remarked enhancement of anticancer activity toward all the tested cancer lines. The role of the OH group at the ortho position of the NH2 on growth inhibition is remarkable. In addition, one compound (1,3-DPA/OH/NH2) was confirmed to have an IC50 of <1 μM against one of the cells (BT-549 breast carcinoma). Comparison of anticancer activities of 1,3-substituted diaminophenyladamantane derivatives, the following order of potency against the tested cancer lines was observed: 1,3-DPA/OH/NH2>1,3-DPAONH2>1,3-DPANH2>1,3-DPA/CF3/NH2.
# [2] = tested on: OVCAR-3; conditions: Homo sapiens; OVCAR-3, Ovarian cancer; drug for last 48 h of 72 h
# Source text: as §1
# [3] = tested on: PC-3; conditions: Homo sapiens; PC-3, Prostate cancer; drug for last 48 h of 72 h
# Source text: as §1
# [4] = tested on: DU-145; conditions: Homo sapiens; DU-145, Prostate cancer; drug for last 48 h of 72 h
# Source text: as §1
# [5] = tested on: COLO 205; conditions: Homo sapiens; COLO 205, Colon cancer; drug for last 48 h of 72 h
# Source text: as §1
# [6] = tested on: SF-268; conditions: Homo sapiens; SF-268, CNS cancer; drug for last 48 h of 72 h
# Source text: as §1
# [7] = tested on: MDA-MB-231; conditions: Homo sapiens; MDA-MB-231, Breast cancer; drug for last 48 h of 72 h
# Source text: as §1
# [8] = tested on: TK-10; conditions: Homo sapiens; TK-10, Renal cancer; drug for last 48 h of 72 h
# Source text: as §1
# [9] = tested on: NCI-H522; conditions: Homo sapiens; NCI-H522, NSCLC; drug for last 48 h of 72 h
# Source text: as §1
# [10] = tested on: HCT-15; conditions: Homo sapiens; HCT-15, Colon cancer; drug for last 48 h of 72 h
# Source text: as §1
# [11] = tested on: M14; conditions: Homo sapiens; M14, Melanoma; drug for last 48 h of 72 h
# Source text: as §1
# [12] = tested on: SK-MEL-2; conditions: Homo sapiens; SK-MEL-2, Melanoma; drug for last 48 h of 72 h
# Source text: as §1
# [13] = tested on: 786-0; conditions: Homo sapiens; 786-0, Renal cancer; drug for last 48 h of 72 h
# Source text: as §1
# [14] = tested on: K-562; conditions: Homo sapiens, K562; K-562, Leukemia; drug for last 48 h of 72 h
# Source text: as §1
# [15] = tested on: SK-MEL-5; conditions: Homo sapiens; SK-MEL-5, Melanoma; drug for last 48 h of 72 h
# Source text: as §1
# [16] = tested on: OVCAR-5; conditions: Homo sapiens; OVCAR-5, Ovarian cancer; drug for last 48 h of 72 h
# Source text: as §1
# [17] = tested on: A549/ATCC; conditions: Homo sapiens, NSCLC, drug for last 48 h of 72 h
# Source text: as §1
# [18] = tested on: SNB-19; conditions: Homo sapiens; SNB-19, CNS cancer; drug for last 48 h of 72 h
# Source text: as §1
# [19] = tested on: OVCAR-4; conditions: Homo sapiens; OVCAR-4, Ovarian cancer; drug for last 48 h of 72 h
# Source text: as §1
# [20] = tested on: SW-620; conditions: Homo sapiens; SW-620, Colon cancer; drug for last 48 h of 72 h
# Source text: as §1
# [21] = tested on: OVCAR-8; conditions: Homo sapiens; OVCAR-8, Ovarian cancer; drug for last 48 h of 72 h
# Source text: as §1
# [22] = tested on: LOX IMVI; conditions: Homo sapiens, Melanoma, drug for last 48 h of 72 h
# Source text: as §1
# [23] = tested on: SK-MEL-28; conditions: Homo sapiens; SK-MEL-28, Melanoma; drug for last 48 h of 72 h
# Source text: as §1
# [24] = tested on: EKVX; conditions: Homo sapiens, NSCLC, drug for last 48 h of 72 h
# Source text: as §1
# [25] = tested on: CCRF-CEM; conditions: Homo sapiens, Leukemia, drug for last 48 h of 72 h
# Source text: as §1
# [26] = tested on: MDA-MB-435; conditions: Homo sapiens; MDA-MB-435, Breast cancer; drug for last 48 h of 72 h
# Source text: as §1
# [27] = tested on: KM12; conditions: Homo sapiens, KM12, KM12, Colon cancer; drug for last 48 h of 72 h
# Source text: as §1
# [28] = tested on: HCT-116; conditions: Homo sapiens; HCT-116, Colon cancer; drug for last 48 h of 72 h
# Source text: as §1
# [29] = tested on: UO-31; conditions: Homo sapiens; UO-31, Renal cancer; drug for last 48 h of 72 h
# Source text: as §1
# [30] = tested on: HL-60(TB); conditions: Homo sapiens, Leukemia, drug for last 48 h of 72 h
# Source text: as §1
smiles,measurement,setting,value
"Nc1ccc(Oc2ccc(C3(c4ccc(Oc5ccc(N)c(O)c5)cc4)C4CC5CC(C4)CC3C5)cc2)cc1O [DPA, 2,2-bis(4-(4-amino-3-hydroxyphenoxy)phenyl)adamantane]",IC50,[1],1940 nM
same,IC50,[2],1560 nM
same,IC50,[3],1600 nM
same,IC50,[4],2060 nM
same,IC50,[5],484 nM
same,IC50,[6],1620 nM
same,IC50,[7],1820 nM
same,IC50,[8],2160 nM
same,IC50,[9],1600 nM
same,IC50,[10],1670 nM
same,IC50,[11],1690 nM
same,IC50,[12],1690 nM
same,IC50,[13],1880 nM
same,IC50,[14],1980 nM
same,IC50,[15],1560 nM
same,IC50,[16],2080 nM
same,IC50,[17],1940 nM
same,IC50,[18],3.01 µM
same,IC50,[19],3.07 µM
same,IC50,[20],1630 nM
same,IC50,[21],1680 nM
same,IC50,[22],1690 nM
same,IC50,[23],1680 nM
same,IC50,[24],2630 nM
same,IC50,[25],3.08 µM
same,IC50,[26],2300 nM
same,IC50,[27],2020 nM
same,IC50,[28],1580 nM
same,IC50,[29],1850 nM
same,IC50,[30],2050 nM
